The values below are quoted from earlier work in patent US8366600B2, “Polyamine enhanced formulations for triptan compound iontophoresis” (NuPathe Inc., priority 2008, dated 2013).

The conditions of series [1]: for Cmax: expected maximum concentration in the patient's plasma; for AUC: total plasma concentration.
For series [2] the following is noted: transdermal, iontophoresis vs passive.

For orientation: Cmax means the maximum level reached in the sampled fluid or tissue. As a reminder, the AUC is the area under the concentration-time curve, a measure of exposure. Regarding `CN(C)CCc1c[nH]c2ccc(CS(=O)(=O)N3CCCC3)cc12` [Almotriptan], in series [1], the Cmax is listed as 52 ng/mL and the AUC is 310 ng·h/mL. For `CN1CCC[C@@H]1Cc1c[nH]c2ccc(CCS(=O)(=O)c3ccccc3)cc12` [Eletriptan], in series [1], the highest concentration (Cmax) was 200 ng/mL and the area under the curve (AUC) is 1,300 ng · hr/mL. For the compound `CN[C@@H]1CCc2[nH]c3ccc(C(N)=O)cc3c2C1` [Frovatriptan], in series [1], the Cmax was 5 ng/mL and the AUC was 45 ng·h/mL. With `CNS(=O)(=O)CCc1ccc2[nH]cc(C3CCN(C)CC3)c2c1` [Naratriptan], in series [1], the Cmax was 8 ng/mL and the area under the curve (AUC) is 75 ng·h/mL. Regarding `CN(C)CCc1c[nH]c2ccc(Cn3cncn3)cc12` [Rizatriptan], in series [1], the maximum concentration (Cmax) is given as 22 ng/mL and the exposure (AUC) was 78 ng·h/mL. For the compound `CNS(=O)(=O)Cc1ccc2[nH]cc(CCN(C)C)c2c1` [Sumatriptan], the “rate of iontophoretic transport relative to passive transport” value in series [2] is given as 385 fold. For `CN(C)CCc1c[nH]c2ccc(C[C@H]3COC(=O)N3)cc12` [Zolmitriptan], in series [1], the Cmax is 4 ng/mL and the AUC is 20 ng·h/mL.
